# Experimental data reported in US20060009433A1, “Neuroprotective spirostenol pharmaceutical compositions” (priority 2003, published 2006).
# “Also recorded” adds a separate entry of the source.
# Key:
# [1] = tested on: PC12 cells (rat pheochromocytoma neurons); test: MTT cytotoxicity assay, Aβ-induced neurotoxicity in PC12 cells (Example II); type: cell-based; conditions: for neuroprotective effect compared with SP222 / neuroprotection against 0.1 μM Aβ-induced neurotoxicity / neuroprotection against 10 μM Aβ-induced neurotoxicity / neuroprotection against 1 μM Aβ-induced neurotoxicity: MTT; for neuroprotective effect compared with SP222: 0.1 μM Aβ; for neuroprotection against 0.1 μM Aβ-induced neurotoxicity / neuroprotection against 10 μM Aβ-induced neurotoxicity / neuroprotection against 1 μM Aβ-induced neurotoxicity: compounds at 30 and 50 μM, 72 hours; for neuroprotection against Aβ-induced neurotoxicity (structure/activity discussion): PC12 cells
# Experimental: (§1) PC12 cells (rat pheochromocytoma neurons) from ATCC (Manassas, Va.) were cultured at 37° C. and 5% CO2 in RPMI 1640 medium devoid of glutamine and supplemented with 10% fetal bovine serum and 5% horse serum. Yao Z, Drieu K and Papadopoulos V., The Gingko biloba extract EGb 761 rescues PC12 neuronal cells from β-amyloid-induced cell death by inhibiting the formation of (3-amyloid-derived diffusible neurotoxic ligands, Brain Res, 889, 181-190 (2001). Cells were seeded in 96-well plates (8×10^4 cells/well). After an overnight period of incubation, increasing concentrations of aggregated Aβ (0.1, 1 and 10 μM) were added to the cells in the presence or absence of the indicated concentrations of the SP compounds to be tested. After 72-hours incubation time various parameters, markers of cell viability, were determined. Mouse MA-10 tumor Leydig cells were maintained at 37° C. in DMEM/Ham's F12 (Biofluids, Rockville, Md.) medium supplemented with 5% heat-inactivated fetal calf serum and 2.5% horse serum in 5% CO2. Cells were plated on 96-well plates at the density of 2.5×10^4 cells/well for overnight. The cells were stimulated with the indicated concentrations of the various SP compounds in 0.2 ml/well serum-free medium for 2 hours. The culture medium was collected and tested for progesterone production by radioimmunoassay.
# The cellular toxicity of Aβ was assessed using the 3-(4,5-dimethylthiazol-2-yl)-2,5-diphenyl tetrazolium bromide (MTT) assay (Trevigen, Gaithersburg, Md.). Briefly, 10 μl of the MTT solution were added to the cells cultured in 100 μl medium. After an incubation period of 4 hours, 100 μl of detergent were added and cells were incubated overnight at 37° C. Formazan blue formation was quantified at 600 nm and 690 nm using the Victor quantitative detection spectrophotometer (EGG-Wallac, Gaithersburg, Md.) and the results expressed as (DO600-DO690). […] Liu Y and Schubert D, Steroid hormones block amyloid fibril-induced 3-(4,5-dimethylthiazol-2-yl)-2,5-diphenyltetrazolium bromide (MTT) formazan exocytosis: relationship to neurotoxicity, J. Neurochem., 19, 1639-1662 (1998). For that reason, additional cytotoxicity and cell viability assays were used.
# Yao et al., J. Neurochem., 83, 1110-1119 (2002); and Yao et al., The Gingko biloba extract EGb 761 rescues PC12 neuronal cells from β-amyloid-induced cell death by inhibiting the formation of β-amyloid-derived diffusible neurotoxic ligands, Brain Res., 889, 181-190 (2001). To stay close to the concentrations of Aβ present in AD brain, 0.1-10 μM concentrations of Aβ were used. The compounds tested for their neuroprotective properties were examined at 30 and 50 μM concentrations (FIGS. 9-15).
# PC12 cells [2] = test: Cellular ATP levels (ATPLite-M) in Aβ-treated PC12 cells; type: cell-based, rat; conditions: 0.1 and 1.0 μM Aβ
# Experimental: as §1
# Cellular ATP concentrations were measured using the ATPLite-M™ luminescence assay (Packard BioSciences Co.). For this assay, cells were cultured on black 96-well ViewPlate™ and the ATP concentrations were measured on a TopCount NXT™ counter (Packard BioSciences Co.) following the recommendations of the manufacturer.
# Aβ = target: T1, Aβ (Homo sapiens, UniProt P05067); test: CPBBA displacement of radiolabeled 22R-hydroxycholesterol from Aβ (Example II); type: binding; conditions: 100 μM unlabeled compound; 50 μM Aβ
# T1 construct: Aβ1-42 peptide was purchased from American Peptide Co; purchased American Peptide Co. (Sunnyvale, Calif.)
# Experimental: At the end of the incubation time, samples were separated by 1.5% agarose (Type I-B) gel electrophoresis under native conditions and transferred to nitrocellulose membrane (Schleicher&Schuell, Keene, N.H.) in 10×SSC buffer. The membrane was exposed to tritium-sensitive screen and analyzed by phosphoimaging using the Cyclone Storage phosphor system (Packard BioScience). Image-densitometric analysis was performed using the OptiQuant software (Packard BioScience). […] Low molecular weight unincorporated 22R-hydroxycholesterol and derivatives are separated and eliminated during electrophoresis.
# human NT2 cells = test: Trypan blue dye exclusion assay, NT2 cells; type: cell-based; conditions: 25 μM steroid, 72 hours
# Experimental: (§2) Rat PC12 cells were cultured as previously described. Yao et al., Brain Res. 889, 181-190 (2001). Human NT2 precursor (Ntera2/D1 teratocarcinoma) cells were obtained from Stratagene (La Jolla, Calif.) and cultured following the instructions of the supplier. Differentiated human NT2 neurons (NT2N) were obtained after treatment of the NT2 precursor cells with retinoic acid. Andrews, Dev. […] Aβ was dissolved in media and used either in the aggregated (left overnight at 4° C.) or soluble (containing oligomers such as dimers and tetramers) forms examined by electrophoresis as previously described. Yao et al., Brain Res. (2001). […] Id. Cell viability was measured using the trypan blue exclusion method as previously described. Id. In brief, for these studies, cells were treated for 72 hours with steroids in the presence or absence of increasing concentrations of Aβ. At the end of the incubation, the cells were washed three times with PBS and incubated for 15 minutes with 0.1% trypan blue stain solution at room temperature. After washing three times with PBS, 0.1 N NaOH was added to the cells and trypan blue staining was quantified using the Victor quantitative detection spectrophotometer (EGG-Wallac, Gaithersburg, Md.) at 450 nm. Cell protein levels were determined in the same samples by the method of Bradford (Bradford, Anal. Biochem., 72, 248-254 (1976)), where coomassie blue staining is detected at 590 nm.
# (§3) The results obtained from using MTT assay were further confirmed with the trypan blue dye exclusion assay. […] Levels of viability were measured using the trypan blue assay as described under Materials and Methods. Results are expressed as fold trypan blue stained cells per total cell protein over control untreated cells. Results shown are means±SD (n=6-12).
# rat PC12 cells = test: Trypan blue dye exclusion assay, PC12 cells (Example I); type: cell-based; conditions: 100 μM steroid, 72 hours
# Experimental: as §2, §3
# NT2 cells [3] = test: NT2 cell differentiation, phase-contrast morphology; type: cell-based, human; conditions: 25 μM; 3, 6 and 12 days (comparators 6 days)
# rat PC12 neuronal cells = test: MTT assay, Aβ1-42-induced cytotoxicity in PC12 cells (Example I); conditions: MTT
# NT2 cells [4] = test: BrdU assay, NT2 cell proliferation; type: cell-based, human; conditions: 50 μM
# PC12 cells [5] = test: Membrane potential (CytoLite luminescence) in Aβ-treated PC12 cells; type: cell-based, rat; conditions: 10 μM Aβ
# Experimental: as §1
# Cells viability was also assessed using the luminescence-based kit CytoLite™ (Packard BioScience Co.) according to the recommendations of the manufacturer. Briefly, cells were cultured and treated in 96-well plates and after 72-hours incubation time, 25 μl of Activator solution was added to the cells followed by 150 μl of Amplifier solution. Luminescence was measured on a TopCount NXT™ counter (Packard BioSciences Co.) following a 5 minute precount delay.
# T1 sequence (P05067 672-713): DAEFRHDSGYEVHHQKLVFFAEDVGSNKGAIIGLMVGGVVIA
compound,measurement,setting,value
"C[C@H]1CC[C@@]2(OC1)O[C@H]1C[C@H]3[C@@H]4CC=C5C[C@@H](O)CC[C@]5(C)[C@H]4CC[C@]3(C)[C@H]1[C@@H]2C [SP235, (22R,25S)-(20α)-spirost-5-en-3β-ol]",neuroprotective effect compared with SP222,[1],significantly more robust effect than SP222
same,neuroprotection against 0.1 μM Aβ-induced neurotoxicity,[1],displayed neuroprotective activity
same,neuroprotection against 10 μM Aβ-induced neurotoxicity,[1],exhibited neuroprotective activity
same,neuroprotection against Aβ-induced neurotoxicity (structure/activity discussion),[1],limited neuroprotection acting only against 0.1 μM Aβ
same,reversal of Aβ-induced decrease in ATP levels,PC12 cells [2],did not block
"CC1CCC2(OC1)OC1CC3C4CC=C5CC(O)C(O)CC5(C)C4CCC3(C)C1C2C [SP227, (22R,25ζ)-(20α)-spirost-5-en-(2α,3ζ)-diol]",displacement of radiolabeled 22R-hydroxycholesterol binding to Aβ,Aβ,38%
"C[C@]12CC[C@H](O)CC1=CC[C@@H]1[C@@H]2CC[C@]2(C)C(=O)CC[C@@H]12 [DHEA, 5-androsten-3β-ol-17-one]",rescue from Aβ1-42-induced cell death,human NT2 cells,had no effect
same,rescue from Aβ25-35-induced cell death,human NT2 cells,Neither 22R-hydroxycholesterol nor DHEA could rescue
same,rescue from Aβ1-42-induced cell death,rat PC12 cells,protected
same,rescue from Aβ25-35-induced cell death,rat PC12 cells,Neither 22R-hydroxycholesterol nor DHEA could rescue
same,effect on NT2 cell morphology (differentiation),NT2 cells [3],could not be replicated
same,"PC12 cell viability, steroid alone at 100 μM",rat PC12 neuronal cells; 100 μM steroid,positive effect on cell viability
"(20α)-25ζ-methyl-N-paratoluenesulfonyl-(22R,26)-azacyclofurost-5-en-3ζ-yl paratoluenesulfonate [SP229]",neuroprotection against 0.1 μM Aβ-induced neurotoxicity,[1],displayed neuroprotective activity
"CC1CCC2(OC1)OC1CC3C4CC=C5CC(OC(=O)c6ccccc6)CCC5(C)C4CCC3(C)C1C2C [SP232, (22R,25ζ)-(20α)-spirost-5-en-3β-yl benzoate]",neuroprotection against Aβ-induced neurotoxicity (structure/activity discussion),[1],not effective in neuroprotection
"CC(=O)OC1CC[C@@]2(C)C(=CC[C@H]3[C@@H]4CC(OC(C)=O)[C@H]([C@H](C)C(CCC(C)CN(C(C)=O)C(C)=O)OC(C)=O)[C@@]4(C)CC[C@@H]32)C1 (stereo partly shown) [SP237, 26-diacetylamino-(22ζ)-acetoxy-(16ζ)-acetoxy-cholest-5-en-yl acetate]",neuroprotection against 0.1 μM Aβ-induced neurotoxicity,[1],displayed neuroprotective activity
same,displacement of radiolabeled 22R-hydroxycholesterol binding to Aβ,Aβ,46%
"(22R,25S)-(20α)-spirost-5-en-3β-yl succinate [SP236]",neuroprotective effect compared with SP222,[1],significantly more robust effect than SP222
same,neuroprotection against 0.1 μM Aβ-induced neurotoxicity,[1],displayed neuroprotective activity
same,neuroprotection against 1 μM Aβ-induced neurotoxicity,[1],maintained their neuroprotective properties
same,neuroprotection against 10 μM Aβ-induced neurotoxicity,[1],exhibited neuroprotective activity
same,neuroprotection against Aβ-induced neurotoxicity (structure/activity discussion),[1],active against higher Aβ concentrations
same,reversal of Aβ-induced decrease in ATP levels,PC12 cells [2],"able to reverse; also recorded: blocked, although in part"
"(20ζ)-25ζ-methyl-N-acetyl-(22R,26)-azacyclofurost-5-en-3ζ-ol [SP226]",neuroprotection against Aβ-induced neurotoxicity (structure/activity discussion),[1],did not offer neuroprotection
same,displacement of radiolabeled 22R-hydroxycholesterol binding to Aβ,Aβ,65%
"C[C@H]1CC[C@@]2(OC1)O[C@H]1C[C@H]3[C@@H]4CC=C5CC(O)CC[C@]5(C)[C@H]4CC[C@]3(C)[C@H]1[C@@H]2C (stereo partly drawn) [SP231, (22R,25S)-(20ζ)-spirost-5-en-3ζ-ol]",neuroprotection against Aβ-induced neurotoxicity (structure/activity discussion),[1],only SP235 is protective
CC(=O)[C@H]1CC[C@H]2[C@@H]3CCC4=CC(=O)CC[C@]4(C)[C@H]3CC[C@]12C [progesterone],effect on NT2 cell morphology (differentiation),NT2 cells [3],could not be replicated
same,NT2 cell proliferation at 50 μM,NT2 cells [4],significantly inhibited
"CC(C)CCC[C@@H](C)[C@H]1CC[C@H]2[C@@H]3CC=C4C[C@@H](O)CC[C@]4(C)[C@H]3CC[C@]12C [cholesterol, 5-cholesten-3β-ol]",effect on NT2 cell morphology (differentiation),NT2 cells [3],could not be replicated
same,effect on toxicity of low concentrations of Aβ,rat PC12 neuronal cells,accentuated the toxic effect of low concentrations of Aβ
same,neuroprotective effect against Aβ-induced neurotoxicity,rat PC12 neuronal cells; Aβ1-42,could not be replicated
(20ζ)-26-acetylamino-(22ζ)-ethoxyfurost-5-en-3ζ-yl acetate [SP228],neuroprotection against 0.1 μM Aβ-induced neurotoxicity,[1],displayed neuroprotective activity
"CC(=O)[C@@]1(O)CC[C@H]2[C@@H]3CC=C4C[C@@H](O)CC[C@]4(C)[C@H]3CC[C@@]21C [17α-hydroxypregnenolone, 5-pregnen-3β, 17α-diol-20-one]","PC12 cell viability, steroid alone",rat PC12 neuronal cells; absence of Aβ,toxic to the cells
"CCC(=O)O[C@H]1CC[C@@]2(C)C(=CC[C@H]3[C@@H]4C[C@@H]5O[C@@]6(CC[C@H](C)CN6C(C)=O)[C@@H](C)[C@@H]5[C@@]4(C)CC[C@@H]32)C1 [SP238, (20α)-25S-methyl-N-acetyl-(22S,26)-azacyclofurost-5-en-3β-yl propanoate]",neuroprotective effect compared with SP222,[1],significantly more robust effect than SP222
same,neuroprotection against 0.1 μM Aβ-induced neurotoxicity,[1],displayed neuroprotective activity
same,neuroprotection against 1 μM Aβ-induced neurotoxicity,[1],maintained their neuroprotective properties
same,neuroprotection against 10 μM Aβ-induced neurotoxicity,[1],kept this property; also recorded: exhibited neuroprotective activity
same,neuroprotection against Aβ-induced neurotoxicity (structure/activity discussion),[1],able to protect PC12 cells
same,reversal of Aβ-induced decrease in ATP levels,PC12 cells [2],did not block; also recorded: no effect on maintaining ATP levels
same,displacement of radiolabeled 22R-hydroxycholesterol binding to Aβ,Aβ,44%
same,"neuroprotective effect against 10 μM Aβ, membrane potential luminescence",PC12 cells [5],replicated by the raise of the signal
